Source: the NIST ThermoML archive (doi:10.1021/je0501843)

Assay: wn = mass fraction of the nth substance listed
Conditions: Fluid (supercritical or subcritical phases), isochoric method, w1 = 0.5001

FC(F)C(F)(F)F [pentafluoroethane] + FCF
Conditions	mass density [kg/m3]
301 K, 4414 kPa	1071.2
302 K, 4977 kPa	1071
303 K, 5537 kPa	1070.9
303 K, 5540 kPa	1070.9
304 K, 6101 kPa	1070.8
304 K, 6103 kPa	1070.8
305 K, 6663 kPa	1070.6
306 K, 7227 kPa	1070.5
306 K, 7228 kPa	1070.5
307 K, 7791 kPa	1070.4
307 K, 7792 kPa	1070.4
308 K, 8356 kPa	1070.2
308 K, 8357 kPa	1070.2
309 K, 8918 kPa	1070.1
310 K, 9482 kPa	1070
310 K, 9484 kPa	1070
311 K, 10048 kPa	1069.8
311 K, 10049 kPa	1069.8
312 K, 10614 kPa	1069.7
312 K, 10615 kPa	1069.7
313 K, 11178 kPa	1069.6
313 K, 11179 kPa	1069.6
314 K, 11741 kPa	1069.4
314 K, 11743 kPa	1069.4
315 K, 12309 kPa	1069.3
316 K, 12875 kPa	1069.2
316 K, 12877 kPa	1069.2
317 K, 13440 kPa	1069
318 K, 14003 kPa	1068.9
318 K, 14005 kPa	1068.9
319 K, 14570 kPa	1068.8
319 K, 14571 kPa	1068.8
320 K, 15135 kPa	1068.6
320 K, 15137 kPa	1068.6
321 K, 15700 kPa	1068.5
321 K, 15701 kPa	1068.5
322 K, 16263 kPa	1068.4
322 K, 16265 kPa	1068.4
323 K, 16830 kPa	1068.2
324 K, 17394 kPa	1068.1
324 K, 17396 kPa	1068.1
325 K, 5448 kPa	946.2
325 K, 17959 kPa	1068
325 K, 17961 kPa	1068
326 K, 5835 kPa	946.1
326 K, 5836 kPa	946.1
326 K, 18524 kPa	1067.8
326 K, 18525 kPa	1067.8
327 K, 6224 kPa	946
327 K, 6225 kPa	946
327 K, 19088 kPa	1067.7
327 K, 19090 kPa	1067.7
328 K, 6615 kPa	945.9
328 K, 6616 kPa	945.9
328 K, 19652 kPa	1067.6
328 K, 19655 kPa	1067.6
329 K, 7006 kPa	945.8
329 K, 7007 kPa	945.8
330 K, 7397 kPa	945.7
330 K, 7399 kPa	945.7
331 K, 7788 kPa	945.6
331 K, 7790 kPa	945.6
332 K, 8183 kPa	945.5
332 K, 8184 kPa	945.5
333 K, 8579 kPa	945.4
334 K, 8970 kPa	945.4
334 K, 8971 kPa	945.4
335 K, 9364 kPa	945.3
336 K, 9759 kPa	945.2
337 K, 10156 kPa	945.1
337 K, 10157 kPa	945.1
338 K, 6179 kPa	859.9
338 K, 10552 kPa	945
338 K, 10553 kPa	945
339 K, 6478 kPa	859.9
339 K, 10948 kPa	944.9
340 K, 6782 kPa	859.8
340 K, 11344 kPa	944.8
340 K, 11346 kPa	944.8
341 K, 7089 kPa	859.7
341 K, 11743 kPa	944.7
341 K, 11745 kPa	944.7
342 K, 7389 kPa	859.6
342 K, 12139 kPa	944.6
342 K, 12142 kPa	944.6
343 K, 7693 kPa	859.6
343 K, 12536 kPa	944.5
343 K, 12538 kPa	944.5
344 K, 7998 kPa	859.5
344 K, 12935 kPa	944.4
344 K, 12936 kPa	944.4
345 K, 8306 kPa	859.4
345 K, 13334 kPa	944.3
346 K, 8612 kPa	859.3
346 K, 13733 kPa	944.2
347 K, 6281 kPa	761.1
347 K, 8917 kPa	859.3
347 K, 14131 kPa	944.1
348 K, 6505 kPa	761.1
348 K, 9225 kPa	859.2
348 K, 14528 kPa	944
349 K, 5380 kPa	475.9
349 K, 6732 kPa	761
349 K, 9535 kPa	859.1
349 K, 14929 kPa	943.9
350 K, 5486 kPa	475.9
350 K, 5543 kPa	525.9
350 K, 5720 kPa	615
350 K, 6957 kPa	761
350 K, 9844 kPa	859
350 K, 15331 kPa	943.8
351 K, 5591 kPa	475.9
351 K, 5661 kPa	525.9
351 K, 5866 kPa	615
351 K, 7184 kPa	760.9
351 K, 10153 kPa	859
351 K, 15729 kPa	943.7
352 K, 5697 kPa	475.9
352 K, 5778 kPa	525.9
352 K, 5877 kPa	571.5
352 K, 6013 kPa	615
352 K, 7411 kPa	760.8
352 K, 10462 kPa	858.9
352 K, 16128 kPa	943.6
353 K, 5802 kPa	475.9
353 K, 5898 kPa	525.9
353 K, 6010 kPa	571.5
353 K, 6163 kPa	615
353 K, 7640 kPa	760.8
353 K, 10771 kPa	858.8
353 K, 16529 kPa	943.5
354 K, 5907 kPa	475.9
354 K, 6017 kPa	525.8
354 K, 6144 kPa	571.4
354 K, 6312 kPa	614.9
354 K, 7867 kPa	760.7
354 K, 11082 kPa	858.7
354 K, 16929 kPa	943.4
355 K, 6013 kPa	475.9
355 K, 6136 kPa	525.8
355 K, 6277 kPa	571.4
355 K, 6460 kPa	614.9
355 K, 8099 kPa	760.7
355 K, 11393 kPa	858.7
355 K, 17330 kPa	943.3
356 K, 6119 kPa	475.9
356 K, 6256 kPa	525.8
356 K, 6409 kPa	571.4
356 K, 6610 kPa	614.9
356 K, 8331 kPa	760.6
356 K, 11703 kPa	858.6
356 K, 17728 kPa	943.3
357 K, 6227 kPa	475.9
357 K, 6375 kPa	525.8
357 K, 6544 kPa	571.4
357 K, 6762 kPa	614.8
357 K, 8563 kPa	760.6
357 K, 12015 kPa	858.5
357 K, 18129 kPa	943.2
358 K, 6332 kPa	475.9
358 K, 6496 kPa	525.8
358 K, 6679 kPa	571.3
358 K, 6913 kPa	614.8
358 K, 8795 kPa	760.5
358 K, 12328 kPa	858.4
358 K, 18529 kPa	943.1
359 K, 6438 kPa	475.9
359 K, 6616 kPa	525.8
359 K, 6814 kPa	571.3
359 K, 7064 kPa	614.8
359 K, 9028 kPa	760.4
359 K, 12639 kPa	858.4
359 K, 18928 kPa	943
360 K, 6544 kPa	475.9
360 K, 6737 kPa	525.8
360 K, 6948 kPa	571.3
360 K, 7219 kPa	614.7
360 K, 9258 kPa	760.4
360 K, 12952 kPa	858.3
361 K, 6650 kPa	475.8
361 K, 6858 kPa	525.7
361 K, 7085 kPa	571.3
361 K, 7368 kPa	614.7
361 K, 9493 kPa	760.3
361 K, 13265 kPa	858.2
362 K, 6758 kPa	475.8
362 K, 6980 kPa	525.7
362 K, 7222 kPa	571.2
362 K, 7523 kPa	614.7
362 K, 9726 kPa	760.3
362 K, 13581 kPa	858.1
363 K, 6864 kPa	475.8
363 K, 7101 kPa	525.7
363 K, 7357 kPa	571.2
363 K, 7676 kPa	614.6
363 K, 9958 kPa	760.2
